From patent US20050054726A1, “Vaccine” (priority 2001, published 2005)

Tests used:
[1] = system: ovalbumin-specific CD4+ T cells; assay: In vivo clonal expansion of ovalbumin-specific CD4+ T cells after PMID immunisation (adoptive transfer model, flow cytometry KJ1+ CD4+); design: species or system mice
Procedure: (§1) Twenty four hours later, minipumps containing 1400W (delivering 10 mg/kg per hour), or sterile water (controls), were implanted subcutaneously into mice under anaesthesia. Mice were then immediately immunised by PMID with two cartridges of either pVAC1.0VA or empty vector (1 μg plasmid DNA/mouse).
(§2) Five days later, mice were killed by cervical dislocation and inguinal and periaortic lymph nodes were collected and prepared as for splenocytes (described above), except that the red blood cell lysis step was omitted. To measure the in vivo clonal expansion of CD4+ T cells induced by immunisation, the proportion of ovalbumin-specific T cells was assessed ex vivo in the lymph node cell preparations. Briefly, an aliquot of lymph node cells from each individual mouse was processed for flow cytometry analysis (Coulter XL) using KJ1.26 (0.2 μg, Caltag) and anti-CD4 (0.5 μg, Sigma).

[2] = system: IL-4 producing cells; assay: ELISPOT of IL-4 (Th2) producing CD4+ T cells from lymph nodes; format: in vivo, mice; settings: combination of 1400W with pVAC1.OVA vs pVAC1.OVA + vehicle; FIG. 2
Procedure: as §1, §2
(§3) Th CD4+ subsets were assessed by ELISPOT analyses of CD4+ T cells producing IFN-γ (Th1) and IL-4 (Th2). Briefly, lymph node cell suspension was aliquoted into ELISPOT plates previously coated with capture IFN-γ or IL-4 antibody and stimulated with ovalbumin cognate peptide.

[3] = system: IFN-γ producing cells; assay: ELISPOT of IFN-γ (Th1) producing CD4+ T cells from lymph nodes; format: in vivo, mice; settings: combination pVAC1.OVA + 1400W; FIG. 3
Procedure: as §1, §2, §3

[4] = system: CD8+ T cells; assay: CD8+ T cell-restricted IFN-γ / IL-2 ELISPOT assay of splenocytes after prime-boost PMID; format: in vivo, C57B1/6 mice
Procedure: Controls contained pVAC1 (0.5 μg plasmid DNA/cartridge) only.
Spleens were collected 12 days later for T cell assays.
The cytotoxic T cell response was assessed by CD8+ T cell-restricted IFN-γ ELISPOT assay of splenocytes. Mice were killed by cervical dislocation and spleens were collected into ice-cold PBS. […] After two washes in PBS to remove particulate matter the single cell suspension was aliquoted into ELISPOT plates previously coated with capture IFN-γ or IL-2 antibody and stimulated with CD8-restricted cognate peptide. After overnight culture, IFN-γ producing cells were visualised by application of anti-murine IFN-γ-biotin labelled antibody (Pharmingen) followed by streptavidin-conjugated alkaline phosphatase and quantitated using image analysis.

[5] = molecular target: iNOS (Homo sapiens, UniProt P35228); settings: category per Alderton et al., Biochem J. (2001) 357, 593-615; cited from earlier work

SMILES	clonal expansion of CD4+ T cells ([1]; empty vector + 1400W vs empty vector + vehicle)	clonal expansion of CD4+ T cells ([1]; pVAC1.OVA + 1400W (minipump, 10 mg/kg per hour) vs pVAC1.OVA + vehicle, lymph nodes, five days after PMID, Figure one)	number of IL-4 producing cells [2]	increase in number of IFN-γ producing cells [3]	number of IFN-γ- or IL-2-producing CD8+ T cells in the spleens ([4]; control plasmid (pVAC1) + 1400W vs vehicle)	number of IFN-γ- or IL-2-producing CD8+ T cells in the spleens ([4]; pVAC1.OVAcyt + 1400W relative to pVAC1.OVAcyt + vehicle, 12 days after boost, FIG. 4)	selectivity category of iNOS inhibitor [5]
CC(=N)NCc1cccc(CN)c1 [1400W, N-[3-(aminomethyl)benzyl] acetamidine]	No difference	substantial increase	no effect to a modest almost 2 fold increase	2-4 times	No differences	twice	
CC(=N)NCCSCC[C@H](N)C(=O)O [GW274150, S-[2-(1-iminoethylamino)ethyl]-L-homocysteine]							highly selective (compounds of over 50-fold selectivity are regarded as highly selective)
CC(=N)NCCCC[C@H](N)C(=O)O [L-NIL, reference compound]							partially selective (Inhibitors which have a 10-50-fold selectivity are regarded as partially selective inhibitors)
